Experimental findings from patent US10125150B2, “Crystalline forms of a PI3K inhibitor” (Incyte Corporation, priority 2015, dated 2018) are described below.

Series [1] can be described thus: Competitive slurry experiments (stability of the crystalline forms), solid characterized by XRPD. The series is classed as physicochemical. To be noted: 50° C. As for the experimental part: Forms I and X of the compound of Formula I were slurried together in a methanol-ethyl acetate (1:10) solvent system and heated at 50° C. for 5 days. Specifically, 5 mL of ethyl acetate and 0.5 mL of methanol were combined and heated to 50° C. Form I (from Example 1) was added to the solvent mixture until a cloudy solution formed (about 156 mg), and then additional Form I was added (about 50 mg). Then 50 mg of Form X (prepared as described in Example 12) was added. The mixture was stirred at 50° C. for 5 days and the solid was characterized and monitored by XRPD.
Forms I to XIII of the compound of Formula I were slurried together in a methanol-ethyl acetate (1:10) solvent system at room temperature for 8 days. Specifically, 10 mg of Form I (from Example 1) was added to 1 mL of ethyl acetate with stirring. Then 0.1 mL of methanol was added giving a cloudy solution to which 3 mg of additional Form I (from Example 1) was added. […]
Forms I and X of the compound of Formula I were slurried together in acetone and heated at 50° C. overnight. […] The mixture was stirred at 50° C. overnight and the solid was characterized and monitored by XRPD.
Forms I to XIII of the compound of Formula I were slurried together in acetone at room temperature for 11 days. […] The mixture was stirred at room temperature for 11 days and the resulting solid was characterized and monitored by XRPD.

The nature of series [2]: Dynamic Vapor Sorption (DVS), moisture adsorption/desorption. The series is classed as physicochemical. The following applies: 25° C. As for the experimental part:
Dynamic Vapor Sorption (DVS) was performed in an SGA-100 Symmetric Vapor Sorption Analyzer from VTI Corporation. The moisture uptake profile was completed in three cycles in 10% RH increments with the first adsorption from 25% to 95% RH, followed by desorption in 10% increments from 95% to 5% RH. The equilibration criteria were 0.0050 wt % in 5 minutes with a maximum equilibration time of 180 minutes. All adsorption and desorption were performed at room temperature (25° C.). No pre-drying step was applied for the sample.
Moisture adsorption/desorption of Form I was analyzed by DVS. […] The shapes of the isotherms indicate weak adsorbent-adsorbate interaction and a low moisture uptake at low vapor concentration.

As for `Cc1csc2nc([C@H](C)Nc3ncnc4[nH]cnc34)c(-c3cccc(F)c3)c(=O)n12` [Form I, (S)-7-(1-(9H-purin-6-ylamino)ethyl)-6-(3-fluorophenyl)-3-methyl-5H-thiazolo[3,2-a]pyrimidin-5-one], the resulting crystalline form in series [1] (Forms I and X slurried in acetone, overnight) is “predominantly Form X”; in series [1] (Forms I and X slurried in methanol-ethyl acetate (1:10), 5 days) it was “predominantly Form I”. The “initial water content (DVS)” value in series [2] (no pre-drying) was “about 0.3%”. Moreover, in series [2] (at 85% RH), the “water adsorption (DVS)” value is listed as 1.8%.
